What was measured:
Format in all cases: ADME
[1] = Solution Degradation Studies measured by compound unchanged at pH 0.4=50% 1 M HCl/50% acetonitrile at 0 hours; conditions: 50% 1 M HCl / 50% acetonitrile solution, read-out: Unchanged
[2] = Solution Degradation Studies measured by compound unchanged at pH 0.4=50% 1 M HCl/50% acetonitrile at 24 hours; conditions: 50% 1 M HCl / 50% acetonitrile solution, read-out: Unchanged
[3] = Solution Degradation Studies measured by compound unchanged at pH 0.4=50% 1 M HCl/50% acetonitrile at 4 hours; conditions: 50% 1 M HCl / 50% acetonitrile solution, read-out: Unchanged
[4] = Solution Degradation Studies measured by compound unchanged at pH 0.4=50% 1 M HCl/50% acetonitrile at 8 hours; conditions: 50% 1 M HCl / 50% acetonitrile solution, read-out: Unchanged
[5] = Solution Degradation Studies measured by compound unchanged at pH 6.4 = 50% water / 50% acetonitrile at 0 hours; conditions: 50% water / 50% acetonitrile solution, read-out: Unchanged
[6] = Solution Degradation Studies measured by compound unchanged at pH 6.4 = 50% water / 50% acetonitrile at 2 hours; conditions: 50% water / 50% acetonitrile solution, read-out: Unchanged
[7] = Solution Degradation Studies measured by compound unchanged at pH 6.4 = 50% water / 50% acetonitrile at 24 hours; conditions: 50% water / 50% acetonitrile solution, read-out: Unchanged
[8] = Solution Degradation Studies measured by compound unchanged at pH 6.4 = 50% water / 50% acetonitrile at 4 hours; conditions: 50% water / 50% acetonitrile solution, read-out: Unchanged
[9] = Solution Degradation Studies measured by compound unchanged at pH 6.4 = 50% water / 50% acetonitrile at 8 hours; conditions: 50% water / 50% acetonitrile solution, read-out: Unchanged
[10] = Solution Degradation Studies measured by compound unchanged at pH 0.4=50% 1 M HCl/50% acetonitrile at 2 hours; conditions: 50% 1 M HCl / 50% acetonitrile solution, read-out: Unchanged
[11] = Solution Degradation Studies measured by compound unchanged at pH 0.4=50%1 M HCl/50% acetonitrile at 0 hours; conditions: 50% 1 M HCl / 50% acetonitrile solution, read-out: Unchanged
[12] = Solution Degradation Studies measured by compound unchanged at pH 0.4=50%1 M HCl/50% acetonitrile at 2 hours; conditions: 50% 1 M HCl / 50% acetonitrile solution, read-out: Unchanged
[13] = Solution Degradation Studies measured by compound unchanged at pH 0.4=50%1 M HCl/50% acetonitrile at 24 hours; conditions: 50% 1 M HCl / 50% acetonitrile solution, read-out: Unchanged
[14] = Solution Degradation Studies measured by compound unchanged at pH 0.4=50%1 M HCl/50% acetonitrile at 4 hours; conditions: 50% 1 M HCl / 50% acetonitrile solution, read-out: Unchanged
[15] = Solution Degradation Studies measured by compound unchanged at pH 0.4=50%1 M HCl/50% acetonitrile at 8 hours; conditions: 50% 1 M HCl / 50% acetonitrile solution, read-out: Unchanged

| SMILES | remaining at 0 h [1] | remaining at 24 h [2] | remaining at 4 h [3] | remaining at 8 h [4] | remaining at 0 h [5] | remaining at 2 h [6] | remaining at 24 h [7] | remaining at 4 h [8] | remaining at 8 h [9] | remaining at 2 h [10] | remaining at 0 h [11] | remaining at 2 h [12] | remaining at 24 h [13] | remaining at 4 h [14] | remaining at 8 h [15] |
| --- | --- | --- | --- | --- | --- | --- | --- | --- | --- | --- | --- | --- | --- | --- | --- |
| Cc1cccc(C)c1OC(=O)NS(=O)(=O)Oc1c(C(C)C)cccc1C(C)C | 93% | 5% | 57% | 37% | 94% | 79% | 20% | 65% | 48% | 71% |  |  |  |  |  |
| CC(C)c1cccc(C(C)C)c1OS(=O)(=O)NC(=O)Oc1c(C(C)(C)C)cccc1C(C)(C)C | 100% | 97% | 99% | 98% | 100% | 100% | 98% | 99% | 99% | 100% |  |  |  |  |  |
| CC(C)c1cccc(C(C)C)c1OC(=O)NS(=O)(=O)Oc1c(C(C)C)cccc1C(C)C [listing 1 of 2 here] | 95% | 23% | 80% | 66% | 95% | 87% | 37% | 85% | 74% | 88% |  |  |  |  |  |
| CC(C)c1cccc(C(C)C)c1OC(=O)NS(=O)(=O)Oc1c(C(C)C)cccc1C(C)C [listing 2 of 2 here] |  |  |  |  | 100% | 100% | 100% | 100% | 100% |  | 100% | 92% | 25% | 83% | 68% |
